Tested on: mice
Assay: pentobarbital-induced sleep test in mice (sleep latency and total sleeping time)
Format: in vivo
Conditions: 30 minutes before pentobarbital 45 mg/kg i.p.
Description: A sleep disorder refers to syndromes in which one cannot fall asleep well and the total sleeping time is short. In order to confirm the effect of improving the sleep quality of beta-lapachone, mice were purchased from Orient Bio Co. Beta-lapachone (Sigma Aldrich) was administered once intraperitoneally or orally to mice at a dose of 0.03, 0.1, 0.3, or 1 mg/kg by concentration, respectively, 30 minutes before induction of sleep, and 0.9% physiological saline was administered to the control mice, and 1 mg/kg of diazepam (MYUNG IN Pharm. Co.), most popular used sleeping pill, was administered intraperitoneally or orally to the positive control mice. 45 mg/kg of pentobarbital ([…] Pharm. Co., Ltd.), a commercially used sedative and sleeping pill, was intraperitoneally administered to mice to induce sleeping after 30 minutes of the above administration.

CC1(C)CCC2=C(O1)c1ccccc1C(=O)C2=O [beta-lapachone]
sleep latency (single intraperitoneal administration at 0.03, 0.1, 0.3 or 1 mg/kg, FIG. 1): shortened in a concentration-dependent manner | total sleeping time (single intraperitoneal administration at 0.03, 0.1, 0.3 or 1 mg/kg, FIG. 2): increased in a concentration-dependent manner | sleep latency (single oral administration at 0.03, 0.1, 0.3 or 1 mg/kg, FIG. 3): shortened in a concentration-dependent manner | total sleeping time (single oral administration at 0.03, 0.1, 0.3 or 1 mg/kg, FIG. 4): increased in a concentration-dependent manner

— patent US11278515B2, “Composition for improvement of sleep or for prevention or treatment of sleep disorders, containing beta-lapachone” (AJOU UNIVERSITY INDUSTRY-ACADEMIC COOPERATION FOUNDATION, priority 2016, dated 2022)
